The source of these data is patent US5318858A, “Antacid composition” (priority 1992, dated 1994).

Read-outs that look alike come from different tables or passages of the source.

Series [1] is described as follows: Labelling of aluminum phosphate gel-containing antacid material with nuclide materials. The class given is physicochemical. An excerpt: After testing several nuclide materials having suitable gamma energies in the range of from 60 to 500 keV, such as ^99m technetium-containing materials (^99m Tc-sulfur colloids, ^99m Tc-albumin microspheres, ^99m Tc-dimercaptosuccinic acid complexes, ^99m Tc-polyphosphates, -pyrophosphates and -diphosphonates), it appeared that ^99m Tc-hydroxymethylene diphosphonate (^99m Tc-HMDP) is the most suitable radiopharmaceutical material for labelling aluminum phosphate gel-containing antacid material.

The conditions of series [2]: oral, cited from earlier work.
For series [3] the following is noted: 21 C.F.R. 331; cited from earlier work.
Series [4] is described as follows: Acid neutralizing capacity (ANC) test and contribution of each active ingredient (21 C.F.R. 331). The class given is physicochemical. The method, then: Acid Neutralizing Capacity
Reagent standardization: as disclosed above.
Temperature: as disclosed above.
pH meter: as disclosed above.
Test suspension: the composition of Ex 1 was well-mixed and exactly 16.0 g (one unit dose) were transferred into a 250 ml glass beaker; sufficient water was added to obtain a total volume of about 70 ml; the resulting suspension was then mixed by means of a magnetic stirrer at 300±30 rpm for one minute. […]
Calculation of the mEq value: the number of mEq of acid neutralized by the test suspension was calculated as follows: […]
an accurately measured volume of an aluminum phosphate suspension containing exactly 9.904 g of aluminum phosphate gel, corresponding to the amount present in a one unit dose (16 g) of the antacid composition of Ex 1, were placed into a 250 ml glass beaker; distilled water was added up to a volume of 70 ml and the resulting suspension was mixed by means of a magnetic stirrer at 300±30 rpm for one minute; […]
Calculation: the percent contribution of each active ingredient in the total antacid composition of Ex 1 was calculated as follows: [formula]

Turning to “^99m Tc-hydroxymethylene diphosphonate [^99m Tc-HMDP]”, the labelling efficiency entry in series [1] is “high labelling efficiency”. The “adsorption onto the wall of the reaction vessels or tubes” value in series [1] (mainly glass) is “substantially non-adsorbed”.
sucralfate: the Al-adhesiveness duration in series [2] (no ulceration) was 3 to 4 h; in series [2] (ulcerated sites of the gastric mucous membrane), “about 24 h”. Moreover, the antacid properties entry in series [3] is reported as “devoid of any antacid properties”.
Turning to `[O]=[Mg]` [MgO, magnesium oxide], the “contribution of active ingredient to ANC” value in series [4] (amount present in one unit dose of Ex 1) is reported as 4.88 mEq. Further, the “percent contribution of active ingredient to total ANC” value in series [4] (relative to total antacid composition of Ex 1) is 40%.
